Experimental data as given in publication PMC7377239, “Cardiovascular Effects of Polychlorinated Biphenyls and Their Major Metabolites” (Environmental Health Perspectives, 2020).
Where two headings read alike, the source gives them in different places.

What was measured:
HUVECs [1] = assay: Tube formation (tubulogenesis) assay in HUVECs, 18 h; assay type: cell-based, human; settings: Homo sapiens, HUVEC, 18 h, HUVEC; for activity at 0.1 µM: 0.10 µM
Method in brief: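 HUVECs (passage 1–5) seeded on reduced-growth-factor basement membrane and exposed to compounds overnight at 37°C, 5% CO2, in 2× maintenance medium with 12.5 ng/mL VEGF; 0.5% DMSO vehicle. Calcein AM-stained tube networks imaged and analysed; vehicle-normalized readouts fit to four-parameter logistic, POD set at one SD of vehicle means.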

HUVECs [2] = assay: High-content imaging cytotoxicity in HUVECs, 24 h; assay type: cell-based, human; settings: Homo sapiens, HUVEC, 24 h, HUVEC; for viability at 0.01 µM / activity at 0.01 µM / viability at 0.1 µM / activity at 0.1 µM / viability at 1 µM / activity at 1 µM / viability at 10 µM / activity at 10 µM / viability at 100 µM / activity at 100 µM: 0.00 µM = 100.00; for viability at 0.1 µM / activity at 0.1 µM: 0.10 µM
Method in brief: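 Confluent HUVEC monolayers, passages 1–5, received test chemicals for 24 h. Cytotoxicity was scored from triple-stain high-content images, with PODs defined by a one-SD deviation from 0.5% DMSO vehicle controls.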

[3] = tube formation mtl, read-out: POD huvec.mtl.18hr
[4] = tube formation tlps, read-out: POD huvec.tlps.18hr
[5] = tube formation tta, read-out: POD huvec.tta.18hr
[6] = tube formation ttl, read-out: POD huvec.ttl.18hr
[7] = cyto, 24 hr, read-out: POD huvec.cyto.24hr
[8] = mito, 24 hr, read-out: POD huvec.mito.24hr
[9] = mitoint, 24 hr, read-out: POD huvec.mitoint.24hr
[10] = nma, 24 hr, read-out: POD huvec.nma.24hr
[11] = tc, 24 hr, read-out: POD huvec.tc.24hr
[12] = HUVECs, 0.00 µM = 100.00, read-out: huvec.mtl.18hr
[13] = HUVECs, 0.00 µM = 100.00, read-out: huvec.tlps.18hr
[14] = HUVECs, 0.00 µM = 100.00, read-out: huvec.tta.18hr
[15] = HUVECs, 0.00 µM = 100.00, read-out: huvec.ttl.18hr
[16] = HUVECs, 24 hr, read-out: huvec.cyto.24hr
[17] = HUVECs, 24 hr, read-out: huvec.mito.24hr
[18] = HUVECs, 24 hr, read-out: huvec.mitoint.24hr
[19] = HUVECs, 24 hr, read-out: huvec.nma.24hr
[20] = HUVECs, 24 hrs, read-out: huvec.tc.24hrs

Oc1cc(Cl)c(-c2cc(Cl)ccc2Cl)cc1Cl [4-OH-PCB 52]
minimal effective concentration (HUVECs [1]; [3]): 8.34 µM
minimal effective concentration (HUVECs [1]; [4]): 4.13 µM
minimal effective concentration (HUVECs [1]; [5]): 51.8 µM
minimal effective concentration (HUVECs [1]; [6]): 62.1 µM
minimal effective concentration (HUVECs [2]; [7]): 1 µM
minimal effective concentration (HUVECs [2]; [8]): 1.1 µM
minimal effective concentration (HUVECs [2]; [9]): 2.32 µM
minimal effective concentration (HUVECs [2]; [10]): 100 µM
minimal effective concentration (HUVECs [2]; [11]): 1 µM

Clc1ccc(-c2cc(Cl)c(Cl)c(Cl)c2)cc1Cl [PCB 126, 3,3′,4,4′,5-pentachlorobiphenyl]
minimal effective concentration (HUVECs [1]; [3]): 100 µM
minimal effective concentration (HUVECs [1]; [4]): 100 µM
minimal effective concentration (HUVECs [1]; [5]): 100 µM
minimal effective concentration (HUVECs [1]; [6]): 100 µM
minimal effective concentration (HUVECs [2]; [7]): 5.33 µM
minimal effective concentration (HUVECs [2]; [8]): 100 µM
minimal effective concentration (HUVECs [2]; [9]): 100 µM
minimal effective concentration (HUVECs [2]; [10]): 100 µM
minimal effective concentration (HUVECs [2]; [11]): 5.33 µM

Oc1ccc(-c2cccc(Cl)c2)cc1Cl [4-OH-PCB 11]
minimal effective concentration (HUVECs [1]; [3]): 7.09 µM
minimal effective concentration (HUVECs [1]; [4]): 35.3 µM
minimal effective concentration (HUVECs [1]; [5]): 100 µM
minimal effective concentration (HUVECs [1]; [6]): 4.15 µM
minimal effective concentration (HUVECs [2]; [7]): 1.37 µM
minimal effective concentration (HUVECs [2]; [8]): 1.2 µM
minimal effective concentration (HUVECs [2]; [9]): 5.43 µM
minimal effective concentration (HUVECs [2]; [10]): 0.99 µM
minimal effective concentration (HUVECs [2]; [11]): 1.37 µM

Oc1ccccc1-c1ccc(Cl)cc1 [2'-OH PCB3]
activity at 0.01 µM (HUVECs [1]; [12]): 96%
activity at 0.01 µM (HUVECs [1]; [13]): 85.8%
activity at 0.01 µM (HUVECs [1]; [14]): 84%
activity at 0.01 µM (HUVECs [1]; [15]): 89.1%
activity at 0.1 µM (HUVECs [1]; [12]): 77.3%
activity at 0.1 µM (HUVECs [1]; [13]): 49.3%
activity at 0.1 µM (HUVECs [1]; [14]): 42.9%
activity at 0.1 µM (HUVECs [1]; [15]): 47.4%
activity at 1 µM (HUVECs [1]; [12]): 95.4%
activity at 1 µM (HUVECs [1]; [13]): 65%
activity at 1 µM (HUVECs [1]; [14]): 71.9%
activity at 1 µM (HUVECs [1]; [15]): 75%
activity at 10 µM (HUVECs [1]; [12]): 92.4%
activity at 10 µM (HUVECs [1]; [13]): 77.5%
activity at 10 µM (HUVECs [1]; [14]): 65.8%
activity at 10 µM (HUVECs [1]; [15]): 69.6%
activity at 100 µM (HUVECs [1]; [12]): 73.9%
activity at 100 µM (HUVECs [1]; [13]): 35.5%
activity at 100 µM (HUVECs [1]; [14]): 64%
activity at 100 µM (HUVECs [1]; [15]): 49.6%
minimal effective concentration (HUVECs [1]; HUVECs, top concentration 100.00 µM, read-out: huvec.mtl.18hr POD): 100 µM
minimal effective concentration (HUVECs [1]; HUVECs, top concentration 100.00 µM, read-out: huvec.tlps.18hr POD): 0.57 µM
minimal effective concentration (HUVECs [1]; HUVECs, top concentration 100.00 µM, read-out: huvec.tta.18hr POD): 100 µM
minimal effective concentration (HUVECs [1]; HUVECs, top concentration 100.00 µM, read-out: huvec.ttl.18hr POD): 100 µM
viability at 0.01 µM (HUVECs [2]; [16]): 88.2%
activity at 0.01 µM (HUVECs [2]; [17]): 87.7%
activity at 0.01 µM (HUVECs [2]; [18]): 94.4%
activity at 0.01 µM (HUVECs [2]; [19]): 93.4%
viability at 0.1 µM (HUVECs [2]; [16]): 84.3%
activity at 0.1 µM (HUVECs [2]; [17]): 84%
activity at 0.1 µM (HUVECs [2]; [18]): 125%
activity at 0.1 µM (HUVECs [2]; [19]): 97.1%
viability at 1 µM (HUVECs [2]; [16]): 93%
activity at 1 µM (HUVECs [2]; [17]): 92.5%
activity at 1 µM (HUVECs [2]; [18]): 107%
activity at 1 µM (HUVECs [2]; [19]): 95.6%
viability at 10 µM (HUVECs [2]; [16]): 90.2%
activity at 10 µM (HUVECs [2]; [17]): 88.2%
activity at 10 µM (HUVECs [2]; [18]): 104%
activity at 10 µM (HUVECs [2]; [19]): 92.6%
viability at 100 µM (HUVECs [2]; [16]): 47.5%
activity at 100 µM (HUVECs [2]; [17]): 38.4%
activity at 100 µM (HUVECs [2]; [18]): 9.54%
activity at 100 µM (HUVECs [2]; [19]): 65%
minimal effective concentration (HUVECs [2]; HUVECs, 24 hr, top concentration 100.00 µM, read-out: huvec.cyto.24hr POD): 5.19 µM
minimal effective concentration (HUVECs [2]; HUVECs, 24 hr, top concentration 100.00 µM, read-out: huvec.mito.24hr POD): 4.06 µM
minimal effective concentration (HUVECs [2]; HUVECs, 24 hr, top concentration 100.00 µM, read-out: huvec.mitoint.24hr POD): 34.4 µM
minimal effective concentration (HUVECs [2]; HUVECs, 24 hr, top concentration 100.00 µM, read-out: huvec.nma.24hr POD): 1.6 µM
viability at 0.01 µM (HUVECs [2]; [20]): 88.2%
viability at 0.1 µM (HUVECs [2]; [20]): 84.3%
viability at 1 µM (HUVECs [2]; [20]): 93.2%
viability at 10 µM (HUVECs [2]; [20]): 90.3%
viability at 100 µM (HUVECs [2]; [20]): 84.1%
minimal effective concentration (HUVECs [2]; HUVECs, 24 hrs, top concentration 100.00 µM, read-out: huvec.tc.24hrs POD): 5.19 µM
